Reference: patent US6087358A (priority 1997, dated 2000)
Converted amounts (≈) assume the structure as drawn. Like-named read-outs stand apart in the source and are kept apart here.

What was measured:
[1] = test system: Mycobacterium bovis BCG (recombinant strain); experiment: microbe, parasite or virus in culture; type: cell-based; details: Mycobacterium tuberculosis variant bovis BCG, BCG, 144 h; 6 days 37° C.; read-out: MIC, column A, 3(S) compounds
Helicobacter pylori = experiment: In vitro inhibition of Helicobacter pylori (broth microdilution MIC); details: for MIC: Helicobacter pylori
[2] = test system: Clostridium difficile ATCC 17857; experiment: In vitro inhibition of Clostridium difficile (Oxyrase broth microdilution MIC); type: cell-based; details: Clostridioides difficile, ATCC17857; Clostridium difficile ATCC 17857, Oxyrase broth; read-out: MIC, column D, 3(S) compounds
Cryptosporidium parvum = experiment: Inhibition of Cryptosporidium parvum (ELISA, infected HCT-8 monolayers); type: cell-based; details: Cryptosporidium parvum, HCT-8, 48 h, read-out: Percent Inhibition of C. parvum; for inhibition at 25 µg/mL: 25 μg/mL; for inhibition at 50 µg/mL: 50 μg/mL; for inhibition at 100 µg/mL: 100 μg/mL; for inhibition at 200 µg/mL: 200 μg/mL
Description: Susceptibility testing against Cryptosporidium was performed according to published procedures (K. Woods, M. Nesterenko, S. Upton, "Development of a microtiter ELISA to quantify development of Cryptosporidium parvum in vitro," FEMS Microbiology Letters, 128:89-94 (1995).
Compounds were solubilized to a concentration of 100 mg/mL in 100% DMSO. DMSO solutions of test compounds were added to the test wells of a microplate at a volume that produced a final concentration of DMSO of 0.2%. Monolayers of human ileocecal adenocarcinoma cells (HCT-8) were prepared by growth in RPMI 1640 medium in 96-Well tissue culture trays for 24 h. Oocysts of C. parvum were allowed to excyst in 10% bleach for 10 min prior to use. Monolayers were then infected with 2-3×10^4 oocysts/well and incubated in the presence or absence of compound for 48 h at 35° C. in 5% CO2 and 95% humidity. Background consisted of wells containing killed oocysts (freeze thaw cycle following 30 sec exposure to liquid nitrogen). Growth control wells were infected with 2-3×10^4 oocysts/well in the absence of test compounds. At the end of incubation, wells were washed and fixed by adding 100 uL of 4% formalin in phosphate buffered saline (pH 7.3) per well for 2 h. After blocking with 1% bovine serum albumin, and 0.002% Tween 20, 50 uL of rat anti-Cryptosporidium membrane protein antiserum was added. After 30 min, wells were washed in PBS and 50 uL of secondary antibody (goat anti-rat antibody conjugated with horseradish peroxidase) was added. After 20-30 min, wells were washed again in PBS and 50 uL of 3,3',5,5'-tetramethylbenzidine solution was added. Plates were allowed to develop for 10-15 min and the optical density was read at 630 nm. Percent inhibition was calculated by comparing the optical density of the drug treated group to that of the untreated control.

[3] = test system: Mycobacterium bovis (rBCG-lux); experiment: microbe, parasite or virus in culture; type: cell-based, Mycobacterium bovis bacille Calmette Guerin; details: Mycobacterium tuberculosis variant bovis, 72 h; read-out: % of control, measured in RLUs
[4] = test system: M. tuberculosis H37 Rv in human THP-1 macrophages; experiment: In vitro activity against M. tuberculosis in human macrophages (luciferase bioluminescence); type: cell-based, Mycobacterium tuberculosis, in human THP-1 cells
[5] = 72 h, read-out: MIC against Helicobacter pylori, strain 17 (Table 5A)
[6] = 72 h, read-out: MIC against Helicobacter pylori, strain 19 (Table 5A)
[7] = 72 h, read-out: MIC against Helicobacter pylori, strain 20 (Table 5A)
[8] = 72 h, read-out: MIC against Helicobacter pylori, strain 40 (Table 5A)
[9] = 72 h, read-out: MIC against Helicobacter pylori, strain 43 (Table 5A)
[10] = 72 h, read-out: MIC against Helicobacter pylori, strain 76 (Table 5A)
[11] = ATCC43504, 72 h, read-out: MIC against Helicobacter pylori, strain ATCC 43504 (Table 5A)

O=C(Nc1ccc(Cl)cc1)N[C@@H]1COc2nc([N+](=O)[O-])cn2C1 [PA-1282, 4-Chlorophenyl Urea of 3S 3-Amino-6-nitro-3,4-dihydro-[2-1b]imidazopyran]
MIC [1]: ≤ 0.002 µg/mL

CC1(C)S[C@@H]2[C@H](NC(=O)[C@H](N)c3ccc(O)cc3)C(=O)N2[C@H]1C(=O)O [Amoxicillin, reference compound]
MICs of control drugs relative to expected values (Helicobacter pylori; H. pylori ATCC 43): within the expected values | MIC (Helicobacter pylori; [5]): 0.016 µg/mL (≈ 0.0438 µM) | MIC (Helicobacter pylori; [6]): 0.016 µg/mL (≈ 0.0438 µM) | MIC (Helicobacter pylori; [7]): 0.032 µg/mL (≈ 0.0876 µM) | MIC (Helicobacter pylori; [8]): 0.032 µg/mL (≈ 0.0876 µM) | MIC (Helicobacter pylori; [9]): 0.016 µg/mL (≈ 0.0438 µM) | MIC (Helicobacter pylori; [10]): 0.032 µg/mL (≈ 0.0876 µM) | MIC (Helicobacter pylori; [11]): 0.06 µg/mL (≈ 0.164 µM)

O=[N+]([O-])c1cn2c(n1)OC[C@@H](OCc1cccc(OCc3ccccc3)c1)C2 [PA-820]
MIC [1]: < 5 µg/mL | MIC [2]: 3.12 µg/mL (≈ 8.18 µM)

COc1ccc(CO[C@@H]2COc3nc([N+](=O)[O-])cn3C2)cc1 [PA-736]
MIC [1]: 8 µg/mL (≈ 26.2 µM) | inhibition at 25 µg/mL (Cryptosporidium parvum): -3.2% | inhibition at 50 µg/mL (Cryptosporidium parvum): 3% | inhibition at 100 µg/mL (Cryptosporidium parvum): 45% | inhibition at 200 µg/mL (Cryptosporidium parvum): 97.7%

CC[C@@H](CO)NCCN[C@@H](CC)CO [Ethambutol]
activity at 0.15 µg/mL [3]: 179% | activity at 0.31 µg/mL [3]: 152% | activity at 0.62 µg/mL [3]: 98.8% | activity at 1.25 µg/mL [3]: 148% | activity at 2.5 µg/mL [3]: 54.8% | activity at 5 µg/mL [3]: 53.1%

CCCCCCCCc1ccc(CO[C@@H]2COc3nc([N+](=O)[O-])cn3C2)cc1 [PA-1142]
MIC [1]: 0.06 µg/mL (≈ 0.155 µM) | MIC [2]: 1.5 µg/mL (≈ 3.87 µM) | MIC (Helicobacter pylori; [5]): > 25 µg/mL | MIC (Helicobacter pylori; [6]): 0.4 µg/mL (≈ 1.03 µM) | MIC (Helicobacter pylori; [7]): 0.8 µg/mL (≈ 2.06 µM) | MIC (Helicobacter pylori; [8]): 1.5 µg/mL (≈ 3.87 µM) | MIC (Helicobacter pylori; [9]): 0.4 µg/mL (≈ 1.03 µM) | MIC (Helicobacter pylori; [10]): 3.12 µg/mL (≈ 8.05 µM) | MIC (Helicobacter pylori; [11]): > 25 µg/mL

O=[N+]([O-])c1cn2c(n1)OC[C@@H](OCc1ccc(C(F)(F)F)cc1C(F)(F)F)C2 [PA-646]
MIC [1]: < 5 µg/mL | MIC [2]: 3.12 µg/mL (≈ 7.59 µM)

NNC(=O)c1ccncc1 [Isoniazid, reference compound]
activity at 0.15 µg/mL [3]: 158% | activity at 0.31 µg/mL [3]: 122% | activity at 0.62 µg/mL [3]: 110% | activity at 1.25 µg/mL [3]: 51.1% | activity at 2.5 µg/mL [3]: 34.1% | activity at 5 µg/mL [3]: 11.4% | RLU values ([4]; 0.03 μg/mL, day 1): 20360 RLU | RLU values ([4]; 0.03 μg/mL, day 2): 61355 RLU | RLU values ([4]; 0.03 μg/mL, day 3): 89528 RLU | RLU values ([4]; 0.03 μg/mL, day 4): 68253 RLU | RLU values ([4]; 0.03 μg/mL, day 7): 89032 RLU | RLU values ([4]; 0.06 μg/mL, day 1): 32192 RLU | RLU values ([4]; 0.06 μg/mL, day 2): 36680 RLU | RLU values ([4]; 0.06 μg/mL, day 3): 40344 RLU | RLU values ([4]; 0.06 μg/mL, day 4): 27408 RLU | RLU values ([4]; 0.06 μg/mL, day 7): 15855 RLU | RLU values ([4]; 0.13 μg/mL, day 1): 31113 RLU | RLU values ([4]; 0.13 μg/mL, day 2): 33898 RLU | RLU values ([4]; 0.13 μg/mL, day 3): 36634 RLU | RLU values ([4]; 0.13 μg/mL, day 4): 25282 RLU | RLU values ([4]; 0.13 μg/mL, day 7): 13373 RLU

O=[N+]([O-])c1cn2c(n1)OC[C@@H](OCc1ccc(Oc3ccccc3)cc1)C2 [PA-1122]
MIC [1]: 0.06 µg/mL (≈ 0.163 µM) | inhibition at 25 µg/mL (Cryptosporidium parvum): -1.8% | inhibition at 50 µg/mL (Cryptosporidium parvum): 17.8% | inhibition at 100 µg/mL (Cryptosporidium parvum): 61% | inhibition at 200 µg/mL (Cryptosporidium parvum): 83.5%

O=C(N[C@@H]1COc2nc([N+](=O)[O-])cn2C1)c1ccc(OCc2ccccc2)cc1 [PA-1125]
MIC [1]: 0.06 µg/mL (≈ 0.152 µM) | MIC [2]: 1.5 µg/mL (≈ 3.8 µM) | MIC (Helicobacter pylori; [5]): > 25 µg/mL | MIC (Helicobacter pylori; [6]): 0.8 µg/mL (≈ 2.03 µM) | MIC (Helicobacter pylori; [7]): 0.8 µg/mL (≈ 2.03 µM) | MIC (Helicobacter pylori; [8]): 1.5 µg/mL (≈ 3.8 µM) | MIC (Helicobacter pylori; [9]): 1.5 µg/mL (≈ 3.8 µM) | MIC (Helicobacter pylori; [10]): > 25 µg/mL | MIC (Helicobacter pylori; [11]): > 25 µg/mL

O=[N+]([O-])c1cn2c(n1)OC[C@@H](OCc1ccccc1)C2 [PA-651]
MIC [1]: > 5 µg/mL | MIC [2]: 3.12 µg/mL (≈ 11.3 µM)
